In patent publication US20060069132A1, “Azolecarboxamide herbicides” (priority 2004, published 2006):

How the values were obtained:
[1] = tested on: ducksalad; assay: Test B flooded paddy test; type: in vivo, Heteranthera limosa; settings: 1000 g ai/ha, scale 0 to 100 (0 no effect, 100 complete control)
Outline: (§1)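 Scale 0–100: zero equals no visible effect, 100 complete control, judged by eye relative to controls. Timing: 13 to 15 days in greenhouse post-treatment. Growth stage at spraying: two leaves (paddy) or one to four leaves, 2–18 cm (postemergence).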

[2] = tested on: velvetleaf; assay: Test B pre-/postemergence herbicide test; type: in vivo, Abutilon theophrasti
Outline: (§2)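 Pre: seeds sown, then sprayed. Post: 1–4-leaf plants (2–18 cm) sprayed at the same time. Paddy: flooded, treated at 2-leaf stage. Formulation: non-phytotoxic solvent with surfactant. Greenhouse 13–15 days; visual 0–100 score relative to controls.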

[3] = tested on: wild oat; assay: Test B postemergence herbicide test; type: in vivo, Avena fatua; settings: for Plant response rating, Oat, Wild: visual rating after 13 to 15 days
Outline: (§3)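 Read-out: visual comparison with controls, scored 0 to 100, where 100 means complete control and 0 no effect. Formulated chemicals were applied postemergence to plants 2–18 cm tall (1- to 4-leaf), or to flooded-paddy plants at the 2-leaf stage, then held 13 to 15 days under glass.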

[4] = tested on: wheat; assay: Test B postemergence herbicide test; type: in vivo, Triticum aestivum; design: key to Wheat plant response rating: 0 = no effect, 100 = complete control; settings: for Plant response rating, Wheat: visual rating after 13 to 15 days
Outline: as §3

[5] = tested on: rice; assay: Test B flooded paddy test; type: in vivo, Oryza sativa; settings: 1000 g ai/ha, scale 0 to 100 (0 no effect, 100 complete control)
Outline: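 Plants grow to 1- to 4-leaf stage (2–18 cm) for postemergence spraying, or to 2-leaf stage for the paddy test. Formulated compound is applied. Greenhouse holding lasts 13–15 days. Response is scored visually relative to controls, 0 no effect to 100 complete control; a dash means no result.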

[6] = tested on: large crabgrass; assay: Test B pre-/postemergence herbicide test; type: in vivo, Digitaria sanguinalis
Outline: as §2

[7] = tested on: pigweed; assay: Test B pre-/postemergence herbicide test; type: in vivo, Amaranthus retroflexus
Outline: as §2

[8] = tested on: corn; assay: Test B pre-/postemergence herbicide test; type: in vivo, Zea mays
Outline: as §2

[9] = tested on: morningglory; assay: Test B pre-/postemergence herbicide test; type: in vivo, Ipomoea coccinea
Outline: (§4)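 Formulation: non-phytotoxic solvent mix with surfactant. Timing: preemergence on seed and postemergence on 2–18 cm plants, applied concurrently. Readout after 13–15 d greenhouse: visual 0–100 control rating against controls.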

[10] = tested on: small flower umbrella sedge; assay: Test B flooded paddy test; type: in vivo, Cyperus difformis; settings: 1000 g ai/ha, scale 0 to 100 (0 no effect, 100 complete control)
Outline: as §1

[11] = tested on: cocklebur; assay: Test B pre-/postemergence herbicide test; type: in vivo, Xanthium strumarium
Outline: as §4

[12] = tested on: barnyardgrass; assay: Test B flooded paddy test; type: in vivo, Echinochloa crus-galli; settings: 1000 g ai/ha, scale 0 to 100 (0 no effect, 100 complete control)
Outline: as §1

[13] = tested on: blackgrass; assay: Test B postemergence herbicide test; type: in vivo, Alopecurus myosuroides; settings: for Plant response rating, Blackgrass: visual rating after 13 to 15 days
Outline: as §1

[14] = tested on: barnyardgrass; assay: Test B pre-/postemergence herbicide test; type: in vivo, Echinochloa crus-galli
Outline: as §4

[15] = tested on: lambsquarters; assay: Test B pre-/postemergence herbicide test; type: in vivo, Chenopodium album
Outline: as §2

[16] = tested on: Surinam grass; assay: Test B pre-/postemergence herbicide test; type: in vivo, Urochloa decumbens
Outline: as §2

[17] = Postemergence, 500 g ai/ha, visual rating after 13 to 15 days, scale 0 (no effect) to 100 (complete control)
[18] = postemergence, 125 g ai/ha, visual rating, scale 0 (no effect) to 100 (complete control)
[19] = preemergence, 125 g ai/ha, 0 to 100 scale, 0 is no effect, 100 is complete control
[20] = Postemergence, 500 g ai/ha, scale 0 (no effect) to 100 (complete control)
[21] = Preemergence, 500 g ai/ha, scale 0 to 100
[22] = 500 g ai/ha, visual rating 0-100, 0 no effect, 100 complete control, preemergence
[23] = 125 g ai/ha, 0 is no effect, 100 is complete control, preemergence
[24] = 125 g ai/ha, visual rating, scale 0 (no effect) to 100 (complete control), postemergence
[25] = 125 g ai/ha, 0 = no effect, 100 = complete control, preemergence
[26] = 500 g ai/ha, visual rating, 0 = no effect, 100 = complete control, preemergence
[27] = postemergence, 500 g ai/ha, scale 0 to 100, 0 is no effect, 100 is complete control

CCn1nc(C(C)(C)C)cc1C(=O)Nc1cccc2c1CCN(C1CC1)C2=O [Compound 64]
Ducksalad plant response rating ([1]; visual rating, 13 to 15 days): 90 | Plant response rating, Velvetleaf [2, 17]: 10 | Velvetleaf plant response rating [2, 18]: 10 | Plant response rating, Velvetleaf [2, 19]: 0 | Plant response rating, Oat, Wild [3, 20]: 20 | Oat, Wild plant response rating [3, 18]: 20 | Plant response rating, Wheat [4, 20]: 10 | Wheat plant response rating [4, 18]: 0 | Rice plant response rating ([5]; visual rating, 13 to 15 days): 50 | Plant response rating, Crabgrass, Large [6, 17]: 10 | Crabgrass, Large plant response rating [6, 21]: 100 | Crabgrass, Large plant response rating [6, 18]: 10 | Plant response rating, Crabgrass, Large [6, 19]: 20 | Plant response rating, Pigweed [7, 17]: 50 | Pigweed plant response rating [7, 18]: 20 | Plant response rating, Pigweed [7, 19]: 100 | Plant response rating, Corn [8, 17]: 20 | Corn plant response rating [8, 21]: 0 | Corn plant response rating [8, 18]: 10 | Plant response rating, Corn [8, 19]: 0 | Plant response rating, Morningglory [9, 17]: 20 | Morningglory plant response rating [9, 18]: 0 | Plant response rating, Morningglory [9, 19]: 0 | Sedge, Umbrella plant response rating ([10]; visual rating, 13 to 15 days): 90 | Plant response rating, Cocklebur [11, 17]: 50 | Cocklebur plant response rating [11, 21]: 0 | Cocklebur plant response rating [11, 18]: 30 | Plant response rating, Cocklebur [11, 19]: 0 | Barnyardgrass plant response rating ([12]; visual rating, 13 to 15 days): 30 | Plant response rating, Blackgrass [13, 20]: 10 | Blackgrass plant response rating [13, 18]: 0 | Plant response rating, Barnyardgrass [14, 17]: 10 | Barnyardgrass plant response rating [14, 21]: 90 | Barnyardgrass plant response rating [14, 18]: 10 | Plant response rating, Barnyardgrass [14, 19]: 50 | Plant response rating, Lambsquarters [15, 17]: 70 | Lambsquarters plant response rating [15, 18]: 70 | Plant response rating, Lambsquarters [15, 19]: 60 | Plant response rating, Surinam Grass [16, 17]: 10 | Surinam Grass plant response rating [16, 18]: 10 | Plant response rating, Surinam Grass [16, 19]: 10

CCOC(=O)c1cc(NC(=O)c2cc(C(C)(C)C)nn2CC)ccc1OC [Compound 96]
Ducksalad plant response rating ([1]; visual rating, 13 to 15 days): 90 | Plant response rating, Velvetleaf [2, 22]: 90 | Plant response rating, Velvetleaf [2, 17]: 80 | Velvetleaf plant response rating [2, 18]: 70 | Plant response rating, Velvetleaf [2, 19]: 50 | Plant response rating, Oat, Wild [3, 20]: 20 | Oat, Wild plant response rating [3, 18]: 20 | Plant response rating, Wheat [4, 20]: 20 | Wheat plant response rating [4, 18]: 10 | Rice plant response rating ([5]; visual rating, 13 to 15 days): 70 | Plant response rating, Crabgrass, Large [6, 22]: 100 | Plant response rating, Crabgrass, Large [6, 17]: 50 | Crabgrass, Large plant response rating [6, 18]: 40 | Plant response rating, Crabgrass, Large [6, 19]: 20 | Plant response rating, Pigweed [7, 22]: 100 | Plant response rating, Pigweed [7, 17]: 100 | Pigweed plant response rating [7, 18]: 70 | Plant response rating, Pigweed [7, 19]: 100 | Plant response rating, Corn [8, 22]: 70 | Plant response rating, Corn [8, 17]: 20 | Corn plant response rating [8, 18]: 10 | Plant response rating, Corn [8, 19]: 40 | Plant response rating, Morningglory [9, 22]: 10 | Plant response rating, Morningglory [9, 17]: 0 | Morningglory plant response rating [9, 18]: 0 | Plant response rating, Morningglory [9, 19]: 0 | Sedge, Umbrella plant response rating ([10]; visual rating, 13 to 15 days): 90 | Plant response rating, Cocklebur [11, 22]: 0 | Plant response rating, Cocklebur [11, 17]: 100 | Cocklebur plant response rating [11, 18]: 90 | Plant response rating, Cocklebur [11, 19]: 0 | Barnyardgrass plant response rating ([12]; visual rating, 13 to 15 days): 80 | Plant response rating, Blackgrass [13, 20]: 20 | Blackgrass plant response rating [13, 18]: 0 | Plant response rating, Barnyardgrass [14, 22]: 90 | Plant response rating, Barnyardgrass [14, 17]: 50 | Barnyardgrass plant response rating [14, 18]: 0 | Plant response rating, Barnyardgrass [14, 19]: 70 | Plant response rating, Lambsquarters [15, 22]: 100 | Plant response rating, Lambsquarters [15, 17]: 100 | Lambsquarters plant response rating [15, 18]: 100 | Plant response rating, Lambsquarters [15, 19]: 100 | Plant response rating, Surinam Grass [16, 22]: 80 | Plant response rating, Surinam Grass [16, 17]: 30 | Surinam Grass plant response rating [16, 18]: 20 | Plant response rating, Surinam Grass [16, 19]: 20

CCc1nn(C(C)(C)C)nc1C(=O)Nc1cccc(C(=S)N(C)C)c1 [Compound 395]
Ducksalad plant response rating [1]: 90 | Plant response rating (0 to 100 scale), Velvetleaf [2, 23]: 80 | Velvetleaf plant response rating [2, 24]: 30 | Velvetleaf plant response rating [2, 20]: 60 | Oat, Wild plant response rating [3, 24]: 40 | Oat, Wild plant response rating [3, 20]: 40 | Wheat plant response rating [4, 24]: 20 | Wheat plant response rating ([4]; 500 g ai/ha, scale 0 to 100, 0 no effect, 100 complete control, preemergence): 100 | Wheat plant response rating [4, 20]: 30 | Rice plant response rating [5]: 80 | Plant response rating (0 to 100 scale), Crabgrass, Large [6, 23]: 100 | Crabgrass, Large plant response rating [6, 24]: 20 | Crabgrass, Large plant response rating [6, 20]: 50 | Plant response rating (0 to 100 scale), Pigweed [7, 23]: 100 | Pigweed plant response rating [7, 24]: 40 | Pigweed plant response rating [7, 20]: 60 | Plant response rating (0 to 100 scale), Corn [8, 23]: 90 | Corn plant response rating [8, 24]: 30 | Corn plant response rating [8, 20]: 60 | Plant response rating (0 to 100 scale), Morningglory [9, 23]: 80 | Morningglory plant response rating [9, 24]: 40 | Morningglory plant response rating [9, 20]: 80 | Sedge, Umbrella plant response rating [10]: 90 | Plant response rating (0 to 100 scale), Cocklebur [11, 23]: 60 | Cocklebur plant response rating [11, 24]: 70 | Cocklebur plant response rating [11, 20]: 80 | Barnyardgrass plant response rating [12]: 90 | Blackgrass plant response rating [13, 24]: 20 | Blackgrass plant response rating [13, 20]: 40 | Plant response rating (0 to 100 scale), Barnyardgrass [14, 23]: 90 | Barnyardgrass plant response rating [14, 24]: 20 | Barnyardgrass plant response rating [14, 20]: 70 | Plant response rating (0 to 100 scale), Lambsquarters [15, 23]: 100 | Lambsquarters plant response rating [15, 24]: 80 | Lambsquarters plant response rating [15, 20]: 100 | Plant response rating (0 to 100 scale), Surinam Grass [16, 23]: 90 | Surinam Grass plant response rating [16, 24]: 20 | Surinam Grass plant response rating [16, 20]: 60

C=CCN(C)C(=O)c1cccc(NC(=O)c2cc(C(C)(C)C)nn2CC)c1 [Compound 285]
Ducksalad plant response rating [1]: 90 | Velvetleaf plant response rating (0 to 100 scale) [2, 25]: 30 | Plant response rating, Velvetleaf [2, 26]: 100 | Velvetleaf plant response rating [2, 18]: 10 | Velvetleaf plant response rating [2, 27]: 40 | Oat, Wild plant response rating [3, 18]: 40 | Oat, Wild plant response rating [3, 27]: 50 | Wheat plant response rating [4, 18]: 30 | Wheat plant response rating [4, 27]: 40 | Rice plant response rating [5]: 80 | Crabgrass, Large plant response rating (0 to 100 scale) [6, 25]: 20 | Plant response rating, Crabgrass, Large [6, 26]: 70 | Crabgrass, Large plant response rating [6, 18]: 0 | Crabgrass, Large plant response rating [6, 27]: 20 | Pigweed plant response rating (0 to 100 scale) [7, 25]: 100 | Plant response rating, Pigweed [7, 26]: 100 | Pigweed plant response rating [7, 18]: 70 | Pigweed plant response rating [7, 27]: 80 | Corn plant response rating (0 to 100 scale) [8, 25]: 0 | Plant response rating, Corn [8, 26]: 40 | Corn plant response rating [8, 18]: 10 | Corn plant response rating [8, 27]: 10 | Morningglory plant response rating (0 to 100 scale) [9, 25]: 0 | Plant response rating, Morningglory [9, 26]: 10 | Morningglory plant response rating [9, 18]: 20 | Morningglory plant response rating [9, 27]: 30 | Sedge, Umbrella plant response rating [10]: 90 | Cocklebur plant response rating (0 to 100 scale) [11, 25]: 0 | Plant response rating, Cocklebur [11, 26]: 0 | Cocklebur plant response rating [11, 18]: 10 | Cocklebur plant response rating [11, 27]: 30 | Barnyardgrass plant response rating [12]: 90 | Blackgrass plant response rating [13, 18]: 30 | Blackgrass plant response rating [13, 27]: 30 | Barnyardgrass plant response rating (0 to 100 scale) [14, 25]: 30 | Plant response rating, Barnyardgrass [14, 26]: 90 | Barnyardgrass plant response rating [14, 18]: 0 | Barnyardgrass plant response rating [14, 27]: 10 | Lambsquarters plant response rating (0 to 100 scale) [15, 25]: 100 | Plant response rating, Lambsquarters [15, 26]: 100 | Lambsquarters plant response rating [15, 18]: 40 | Lambsquarters plant response rating [15, 27]: 70 | Surinam Grass plant response rating (0 to 100 scale) [16, 25]: 10 | Plant response rating, Surinam Grass [16, 26]: 70 | Surinam Grass plant response rating [16, 18]: 10 | Surinam Grass plant response rating [16, 27]: 30
